Test results from patent US11174252B2, “Heterocyclic compounds as kinase inhibitors” (priority 2018, dated 2021).
Where two headings read alike, the source gives them in different places.

Key:
CDK6 = CDK6 (Homo sapiens (Human), UniProt Q00534); assay: biochemical; assay type: biochemical
CDK4 = CDK4 (Homo sapiens (Human), UniProt P11802); assay: In vitro kinase inhibition, luminescence (ADP-Glo) with retinoblastoma substrate; assay type: biochemical
MCF-7 = assay: Cancer cell proliferation assay, single agent; assay type: cell-based; settings: Homo sapiens
FMS kinase = FMS kinase (Homo sapiens (Human), UniProt P07333); assay: LanthaScreen kinase assay (ATP, fluorescent-PolyGT substrate, TR-FRET); assay type: biochemical
DU4475 = assay: Cancer cell proliferation assay, single agent; assay type: cell-based; settings: Homo sapiens
[1] = MCF7, MCF-7 cells, treated for 24-168 hours, read-out: IC50 (nM) MCF-7
[2] = DU-4475, DU4475 cells, treated for 24-168 hours, read-out: IC50 (nM) DU4475
[3] = MCF7, read-out: IC50 (nM) MCF-7
[4] = DU-4475, read-out: IC50 (nM) DU4475

Sequence of CDK4 (P11802 whole entry): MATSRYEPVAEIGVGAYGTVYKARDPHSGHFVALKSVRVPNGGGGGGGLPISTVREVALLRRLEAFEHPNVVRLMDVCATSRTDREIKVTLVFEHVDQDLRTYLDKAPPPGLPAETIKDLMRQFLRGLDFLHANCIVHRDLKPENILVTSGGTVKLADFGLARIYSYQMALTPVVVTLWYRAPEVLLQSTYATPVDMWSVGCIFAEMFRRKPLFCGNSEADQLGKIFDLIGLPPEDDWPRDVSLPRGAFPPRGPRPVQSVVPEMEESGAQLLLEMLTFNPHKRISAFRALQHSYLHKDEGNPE
Sequence of CDK4 (P24385 whole entry partner): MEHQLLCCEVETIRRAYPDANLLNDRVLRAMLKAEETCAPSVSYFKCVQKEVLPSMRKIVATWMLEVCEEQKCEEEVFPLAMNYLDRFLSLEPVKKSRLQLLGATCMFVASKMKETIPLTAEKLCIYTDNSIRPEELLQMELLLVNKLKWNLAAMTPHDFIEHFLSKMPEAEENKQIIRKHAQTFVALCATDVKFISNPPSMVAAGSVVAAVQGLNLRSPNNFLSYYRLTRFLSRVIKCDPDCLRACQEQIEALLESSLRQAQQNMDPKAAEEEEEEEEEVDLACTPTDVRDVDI
Sequence of FMS kinase (P07333 20-972): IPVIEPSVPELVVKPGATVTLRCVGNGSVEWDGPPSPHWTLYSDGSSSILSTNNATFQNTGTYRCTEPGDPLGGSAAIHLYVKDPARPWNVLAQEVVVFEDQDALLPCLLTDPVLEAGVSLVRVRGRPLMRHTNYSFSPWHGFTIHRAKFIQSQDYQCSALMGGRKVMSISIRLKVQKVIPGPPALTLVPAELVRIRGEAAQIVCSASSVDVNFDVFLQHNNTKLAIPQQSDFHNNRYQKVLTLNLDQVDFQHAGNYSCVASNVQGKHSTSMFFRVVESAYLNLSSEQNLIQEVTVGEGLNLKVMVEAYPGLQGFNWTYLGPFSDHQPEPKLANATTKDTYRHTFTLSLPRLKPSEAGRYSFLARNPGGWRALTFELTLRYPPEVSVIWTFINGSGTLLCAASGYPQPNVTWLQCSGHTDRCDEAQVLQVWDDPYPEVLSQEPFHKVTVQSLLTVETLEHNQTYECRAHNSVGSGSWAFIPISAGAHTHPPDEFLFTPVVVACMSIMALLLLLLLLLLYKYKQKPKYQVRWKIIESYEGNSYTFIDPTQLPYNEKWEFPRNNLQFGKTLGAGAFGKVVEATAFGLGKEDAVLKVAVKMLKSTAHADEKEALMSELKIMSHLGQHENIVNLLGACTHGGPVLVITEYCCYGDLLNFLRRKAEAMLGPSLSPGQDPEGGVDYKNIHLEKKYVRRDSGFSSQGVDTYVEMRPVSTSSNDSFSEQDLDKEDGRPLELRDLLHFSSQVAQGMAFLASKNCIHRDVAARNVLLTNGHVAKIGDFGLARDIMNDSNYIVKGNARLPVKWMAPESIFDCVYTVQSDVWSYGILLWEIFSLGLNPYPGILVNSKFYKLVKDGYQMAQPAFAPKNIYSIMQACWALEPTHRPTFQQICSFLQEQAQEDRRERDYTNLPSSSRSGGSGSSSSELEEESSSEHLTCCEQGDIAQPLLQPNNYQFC

| SMILES | IC50 (CDK6) [nM] | IC50 (CDK4) [nM] | IC50 (MCF-7; [1]) [nM] | IC50 (FMS kinase) [nM] | IC50 (DU4475; [2]) [nM] | IC50 (MCF-7; [3]) [nM] | IC50 (DU4475; [4]) [nM] |
| --- | --- | --- | --- | --- | --- | --- | --- |
| CC(C)N1CCOc2c(Cl)cc(-c3nc(Nc4ccc(N5CCNCC5)c(F)c4)ncc3Cl)cc21 [Compound 52, 5-chloro-4-(8-chloro-4-isopropyl-3,4-dihydro-2H-benzo[b][1,4]oxazin-6-yl)-N-(3-fluoro-4-(piperazin-1-yl)phenyl)pyrimidin-2-amine] | 200 | 89 | 695 | 14 |  |  |  |
| CC(C)N1CCOc2c(F)cc(-c3nc(Nc4ccc(C(N)=O)c(F)c4)ncc3F)cc21 [Compound 790, 2-fluoro-4-((5-fluoro-4-(8-fluoro-4-isopropyl-3,4-dihydro-2H-benzo[b][1,4]oxazin-6-yl)pyrimidin-2-yl)amino)benzamide] | 3 |  | 17 |  | 20 |  |  |
| CC(C)N1CCOc2c(F)cc(-c3nc(Nc4ccc(S(=O)(=O)N5CCN(C)CC5)cc4)ncc3F)cc21 [Compound 522, 5-fluoro-4-(8-fluoro-4-isopropyl-3,4-dihydro-2H-benzo[b][1,4]oxazin-6-yl)-N-(4-((4-methylpiperazin-1-yl)sulfonyl)phenyl)pyrimidin-2-amine] | 105 | 36 | 345 |  | 395 |  |  |
| CC(C)N1CCOc2c(F)cc(-c3nc(Nc4ccc5c(c4)CC(N(C)C)CC5)ncc3F)cc21 (centres unmarked) [Compound 206, N7-(5-fluoro-4-(8-fluoro-4-isopropyl-3,4-dihydro-2H-benzo[b][1,4]oxazin-6-yl)pyrimidin-2-yl)-N2,N2-dimethyl-1,2,3,4-tetrahydronaphthalene-2,7-diamine] | 100 | 56 | 670 | 2.5 |  |  |  |
| CC(C)N1CCOc2c(F)cc(-c3nc(Nc4ccc(C5CCNCC5)c(C(F)(F)F)c4)ncc3F)cc21 [Compound 438, 5-fluoro-4-(8-fluoro-4-isopropyl-3,4-dihydro-2H-benzo[b][1,4]oxazin-6-yl)-N-(4-(piperidin-4-yl)-3-(trifluoromethyl)phenyl)pyrimidin-2-amine] | 74 | 41 | 200 | 5 |  |  |  |
| CCN1CCN(Cc2ccc(Nc3ncc(F)c(-c4cc(F)c5c(c4)N(C4CCC(N)CC4)CCO5)n3)nc2)CC1 (centres unmarked) [Compound 9, 4-(4-(4-aminocyclohexyl)-8-fluoro-3,4-dihydro-2H-benzo[b][, 4]oxazin-6-yl)-N-(5-((4-ethylpiperazin-1-yl)methyl)pyridin-2-yl)-5-fluoropyrimidin-2-amine] | 173 | > 183 |  | > 5000 |  | 3260 |  |
| CN1CCOc2c(F)cc(-c3nc(Nc4ccc(N5CCNCC5)c(F)c4)ncc3F)cc21 [Compound 34, 5-fluoro-N-(3-fluoro-4-(piperazin-1-yl)phenyl)-4-(8-fluoro-4-methyl-3,4-dihydro-2H-benzo[b][1,4]oxazin-6-yl)pyrimidin-2-amine] | 6 | 3 |  | 42 |  | 50 |  |
| CC(C)N1CCOc2c(F)cc(-c3nc(Nc4ccc(C5CCN(C(=O)CO)CC5)cn4)ncc3F)cc21 [Compound 510, 1-(4-(6-((5-fluoro-4-(8-fluoro-4-isopropyl-3,4-dihydro-2H-benzo[b][1,4]oxazin-6-yl)pyrimidin-2-yl)amino)pyridin-3-yl)piperidin-1-yl)-2-hydroxyethan-1-one] | 4 | 3 |  |  |  | 293 | 1970 |
| CC(C)N1CCOc2c(F)cc(-c3nc(Nc4ccc(N5CCN(C(=O)CO)CC5)cn4)ncc3F)cc21 [Compound 506, 1-(4-(6-((5-fluoro-4-(8-fluoro-4-isopropyl-3,4-dihydro-2H-benzo[b][1,4]oxazin-6-yl)pyrimidin-2-yl)amino)pyridin-3-yl)piperazin-1-yl)-2-hydroxyethan-1-one] |  |  | 354 |  |  |  | 1500 |
| CC(C)N1CCOc2c(F)cc(-c3nc(Nc4ccc(CN5CCN(CC6CC6)CC5)cn4)ncc3F)cc21 [Compound 516, N-(5-((4-(cyclopropylmethyl)piperazin-1-yl)methyl)pyridin-2-yl)-5-fluoro-4-(8-fluoro-4-isopropyl-3,4-dihydro-2H-benzo[b][1,4]oxazin-6-yl)pyrimidin-2-amine] | 4 | 1 | 155 |  | 995 |  |  |
| CC(C)N1C(=O)COc2c(F)cc(-c3nc(Nc4ccc(N5CCNCC5)cn4)ncc3F)cc21 [Compound 2, 8-fluoro-6-(5-fluoro-2-(5-(piperazin-1-yl)pyridin-2-ylamino)pyrimidin-4-yl)-4-isopropyl-2H-benzo[b][1,4]oxazin-3(4H)-one] | 6.9 | 6 |  | > 5000 |  |  |  |
| CCCN1CCOc2c(F)cc(-c3nc(Nc4ccc(N5CCNCC5)c(F)c4)ncc3F)cc21 [Compound 36, 5-fluoro-N-(3-fluoro-4-(piperazin-1-yl)phenyl)-4-(8-fluoro-4-propyl-3,4-dihydro-2H-benzo[b][1,4]oxazin-6-yl)pyrimidin-2-amine] | 5 | 4 |  | 102 |  | 40 |  |
